According to US20020045638A1, “Method of treating estrogen receptor positive carcinoma” (priority 2000, published 2002):
Read-outs that look alike come from different tables or passages of the source.

Experiments:
MCF-7 tumors = test: Growth of MCF-7 breast carcinoma implanted in nude mice; assay type: in vivo; conditions: for Tumor size (mean ± standard error): 5 mg/kg CCI-779 PO q2d days 1-9
Description: In the third standard pharmacological test procedure, mice implanted with MCF-7 tumors were treated with a combination of ERA-923 and CCI-779. […] ERA-923 was dissolved in 1% Tween 80 and 0.9% NaCl Injection USP. Drug was aliquoted into daily doses using 10.0 ml glass bottles and frozen at −20° C. until needed. CCI-779 was made fresh using a 5% ETOH, 4.9% Phosal and 0.1% Tween 80 in Sterile Water. 0.2 ml of each drug was given orally starting the day after tumor implantation. ERA 923 was given daily for the duration of the experiment and CCI-779 was given every other day for the first 10 days. The control vehicles were given on the same regime as the drugs. MCF7 cells were cultured in IMEM containing 5% Fetal Bovine Serum with passages varying from 2-20. After trypsinization tumors were resuspended in IMEM with 2% Serum at a 1:1 ratio with Matrigel. 10 million cells were injected subcutaneously into the mammary tissue of each mouse using a 1.0 ml tuberculin syringe with a 23 3/4 gauge needle. Five to six week old female ovariectomized athymic nu/nu mice (Charles River Labs: Wilmington, Mass.) weighing from 20.0-23.0 g were used. The animals were housed 5 to a cage in a Microisolator Open Rack System (Lab Products: Maywood, N.J.). Each mouse received a 17β-Estradiol pellet (0.72 mg/pellet-60 day release). The pellets were injected with a 10 gauge trochar into the lateral side of the neck between the ear and the shoulder 1-2 weeks prior to tumor injection. Control groups were 15 mice/vehicle whereas the drug groups were 10 mice/drug. Tumors were measured weekly by means of solar calipers (Cole-Parmer Instuments: Vernon Hills, Ill.) and tumor weights were estimated from tumor diameters by the following formula:
Tumor weight (mg)=tumor length (mm)×tumor width (mm)^2/2.
Mice were euthanized 36 days after tumor injection by CO2 inhalation. […] Nude mice bearing MCF-7 tumors were given ERA-923, CCI-779 or the combination of both drugs.

[1] = system: MCF-7 human breast cancer cells; test: Inhibition of growth of MCF-7 breast cancer cells (MTT), with MacSynergy II synergy analysis; conditions: for inhibition at 0.005 µM / inhibition at 0.01 µM / inhibition at 0.05 µM / inhibition at 0.1 µM / inhibition at 0.2 µM / inhibition at 0.4 µM: Homo sapiens;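 on all read-outs here: cells treated five or six days with single agents or combinations, growth read by MTT, synergy surface equals observed % inhibition minus Bliss additive prediction, values under 0% signal antagonism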
Description: In these test procedures, rapamycin 42-ester with 3-hydroxy-2-(hydroxymethyl)-2-methylpropionic acid was used as a representative rapamycin, and 2-(4-hydroxy-phenyl)-3-methyl-1-[4-(2-piperdin-1-yl-ethoxy)-benzyl-1 H-indol-5-ol, raloxifene, and 4-hydroxytamoxifen were used as representative antiestrogens.
MCF-7 human breast cancer cells were maintained at 37° C. in a humidified atmosphere of 5% CO2 and 95% air in IMEM medium supplemented with 10% fetal bovine serum. […] One day before the experiment, cells were plated in 96-well plates at a cell density of 2,500 cells/well in IMEM medium supplemented with 10% fetal bovine serum. The next day, cells were treated with various concentrations of antiestrogen and rapamycin 42-ester with 3-hydroxy-2-(hydroxymethyl)-2-methylpropionic acid (referred to as CCI-779 in the tables below). Five or six-days later, cell growth was monitored. MTT solution (20 ul) (0.5 mg/ml) was added to each well and cells were incubated for an additional 4 h. The solution was then removed and 150 ul of DMSO added. The intensity of dark blue color corresponding to number of cells was read at 540 nm with an automated plate reader.
Briefly, theoretical additive interactions were calculated from the dose-response curves of each individual drug based on Bliss independence model. The calculated additive surface was then subtracted from the experimental surface to obtain a synergy surface representing % inhibition above the calculated additive value-synergy index. […] Likewise, any peak below the 0% plane is indicative of antagonism.

**Q.** For `CO[C@H]1C[C@@H]2CC[C@@H](C)[C@@](O)(O2)C(=O)C(=O)N2CCCC[C@H]2C(=O)O[C@H]([C@H](C)C[C@@H]2CC[C@@H](OC(=O)C(C)(CO)CO)[C@H](OC)C2)CC(=O)[C@H](C)/C=C(\C)[C@@H](O)[C@@H](OC)C(=O)[C@H](C)C[C@H](C)/C=C/C=C/C=C/1C` [CCI-779, rapamycin 42-ester with 3-hydroxy-2-(hydroxymethyl)-2-methylpropionic acid], which “Tumor size (mean ± standard error)” value (MCF-7 tumors; day 14 after tumor implantation) is on record?
**A.** 260 ± 18 mg

**Q.** What about the “Tumor size (mean ± standard error)” value (MCF-7 tumors; day 21 after tumor implantation) of the same molecule?
**A.** 485 ± 53 mg

**Q.** And the “Tumor size (mean ± standard error)” value (MCF-7 tumors; day 28 after tumor implantation)?
**A.** 704 ± 63 mg

**Q.** And the “Tumor size (mean ± standard error)” value (MCF-7 tumors; day 36 after tumor implantation)?
**A.** 1123 ± 134 mg

**Q.** And the “inhibition of tumor growth” value (MCF-7 tumors; nude mice bearing MCF-7 tumors, growth inhibition=experimental value−200 (baseline)/control value −200)?
**A.** approximately 35%

**Q.** And the “increase of growth inhibition as estimated by the IC50” value ([1]; CCI-779 in the presence of non-inhibitory concentrations of ERA-923)?
**A.** approximately 40 fold

**Q.** What about the inhibition at 0.005 µM ([1]; MCF7, read-out: Percent Inhibition, Table B, CCI-779 5 nM, 4-Hydroxytamoxifen 0 nM) of the same molecule?
**A.** -16.5%

**Q.** What about the inhibition at 0.01 µM ([1]; MCF7, read-out: Percent Inhibition, Table B, CCI-779 10 nM, 4-Hydroxytamoxifen 0 nM) of the same molecule?
**A.** 1.47%

**Q.** And the inhibition at 0.05 µM ([1]; MCF7, read-out: Percent Inhibition, Table B, CCI-779 50 nM, 4-Hydroxytamoxifen 0 nM)?
**A.** 15%

**Q.** What about the inhibition at 0.1 µM ([1]; MCF7, read-out: Percent Inhibition, Table B, CCI-779 100 nM, 4-Hydroxytamoxifen 0 nM) of the same molecule?
**A.** 24.6%

**Q.** What about the inhibition at 0.2 µM ([1]; MCF7, read-out: Percent Inhibition, Table B, CCI-779 200 nM, 4-Hydroxytamoxifen 0 nM) of the same molecule?
**A.** 25.2%

**Q.** What about the inhibition at 0.4 µM ([1]; MCF7, read-out: Percent Inhibition, Table B, CCI-779 400 nM, 4-Hydroxytamoxifen 0 nM) of the same molecule?
**A.** 34%

**Q.** And the inhibition at 0.005 µM ([1]; MCF7, read-out: Percent Inhibition, Table C, CCI-779 5 nM, Raloxifene 0 nM)?
**A.** -13.8%

**Q.** What about the inhibition at 0.01 µM ([1]; MCF7, read-out: Percent Inhibition, Table C, CCI-779 10 nM, Raloxifene 0 nM) of the same molecule?
**A.** -3.3%

**Q.** And the inhibition at 0.05 µM ([1]; MCF7, read-out: Percent Inhibition, Table C, CCI-779 50 nM, Raloxifene 0 nM)?
**A.** 35.3%

**Q.** What about the inhibition at 0.1 µM ([1]; MCF7, read-out: Percent Inhibition, Table C, CCI-779 100 nM, Raloxifene 0 nM) of the same molecule?
**A.** 38.1%

**Q.** What about the inhibition at 0.2 µM ([1]; MCF7, read-out: Percent Inhibition, Table C, CCI-779 200 nM, Raloxifene 0 nM) of the same molecule?
**A.** 38.1%

**Q.** What about the inhibition at 0.4 µM ([1]; MCF7, read-out: Percent Inhibition, Table C, CCI-779 400 nM, Raloxifene 0 nM) of the same molecule?
**A.** 39.8%

**Q.** And the inhibition at 0.005 µM ([1]; MCF7, read-out: Percent Inhibition, Table E, CCI-779 0 nM + CCI-779 5 nM)?
**A.** -4.19%

**Q.** And the inhibition at 0.01 µM ([1]; MCF7, read-out: Percent Inhibition, Table E, CCI-779 0 nM + CCI-779 10 nM)?
**A.** 10.2%

**Q.** And the inhibition at 0.05 µM ([1]; MCF7, read-out: Percent Inhibition, Table E, CCI-779 0 nM + CCI-779 50 nM)?
**A.** 49.8%

**Q.** And the inhibition at 0.1 µM ([1]; MCF7, read-out: Percent Inhibition, Table E, CCI-779 0 nM + CCI-779 100 nM)?
**A.** 46.8%

**Q.** And the inhibition at 0.2 µM ([1]; MCF7, read-out: Percent Inhibition, Table E, CCI-779 0 nM + CCI-779 200 nM)?
**A.** 53.5%

**Q.** And the inhibition at 0.4 µM ([1]; MCF7, read-out: Percent Inhibition, Table E, CCI-779 0 nM + CCI-779 400 nM)?
**A.** 55.3%

**Q.** What about the inhibition at 0.005 µM ([1]; MCF7, read-out: Percent Inhibition, Table E, CCI-779 5 nM + CCI-779 5 nM) of the same molecule?
**A.** 13.2%

**Q.** What about the inhibition at 0.01 µM ([1]; MCF7, read-out: Percent Inhibition, Table E, CCI-779 5 nM + CCI-779 10 nM) of the same molecule?
**A.** 18.6%

**Q.** And the inhibition at 0.05 µM ([1]; MCF7, read-out: Percent Inhibition, Table E, CCI-779 5 nM + CCI-779 50 nM)?
**A.** 49.2%

**Q.** What about the inhibition at 0.1 µM ([1]; MCF7, read-out: Percent Inhibition, Table E, CCI-779 5 nM + CCI-779 100 nM) of the same molecule?
**A.** 51%

**Q.** And the inhibition at 0.2 µM ([1]; MCF7, read-out: Percent Inhibition, Table E, CCI-779 5 nM + CCI-779 200 nM)?
**A.** 58.1%

**Q.** What about the inhibition at 0.4 µM ([1]; MCF7, read-out: Percent Inhibition, Table E, CCI-779 5 nM + CCI-779 400 nM) of the same molecule?
**A.** 64.1%

**Q.** And the inhibition at 0.005 µM ([1]; MCF7, read-out: Percent Inhibition, Table E, CCI-779 10 nM + CCI-779 5 nM)?
**A.** 18.8%

**Q.** And the inhibition at 0.01 µM ([1]; MCF7, read-out: Percent Inhibition, Table E, CCI-779 10 nM + CCI-779 10 nM)?
**A.** 23.5%

**Q.** What about the inhibition at 0.05 µM ([1]; MCF7, read-out: Percent Inhibition, Table E, CCI-779 10 nM + CCI-779 50 nM) of the same molecule?
**A.** 51.2%

**Q.** And the inhibition at 0.1 µM ([1]; MCF7, read-out: Percent Inhibition, Table E, CCI-779 10 nM + CCI-779 100 nM)?
**A.** 54.8%

**Q.** What about the inhibition at 0.2 µM ([1]; MCF7, read-out: Percent Inhibition, Table E, CCI-779 10 nM + CCI-779 200 nM) of the same molecule?
**A.** 62.4%

**Q.** And the inhibition at 0.4 µM ([1]; MCF7, read-out: Percent Inhibition, Table E, CCI-779 10 nM + CCI-779 400 nM)?
**A.** 65.2%

**Q.** And the inhibition at 0.005 µM ([1]; MCF7, read-out: Percent Inhibition, Table E, CCI-779 50 nM + CCI-779 5 nM)?
**A.** 48.3%

**Q.** What about the inhibition at 0.01 µM ([1]; MCF7, read-out: Percent Inhibition, Table E, CCI-779 50 nM + CCI-779 10 nM) of the same molecule?
**A.** 46.9%

**Q.** And the inhibition at 0.05 µM ([1]; MCF7, read-out: Percent Inhibition, Table E, CCI-779 50 nM + CCI-779 50 nM)?
**A.** 50.3%

**Q.** And the inhibition at 0.1 µM ([1]; MCF7, read-out: Percent Inhibition, Table E, CCI-779 50 nM + CCI-779 100 nM)?
**A.** 54.6%

**Q.** And the inhibition at 0.2 µM ([1]; MCF7, read-out: Percent Inhibition, Table E, CCI-779 50 nM + CCI-779 200 nM)?
**A.** 57.5%

**Q.** And the inhibition at 0.4 µM ([1]; MCF7, read-out: Percent Inhibition, Table E, CCI-779 50 nM + CCI-779 400 nM)?
**A.** 60.2%

**Q.** And the inhibition at 0.005 µM ([1]; MCF7, read-out: Percent Inhibition, Table E, CCI-779 100 nM + CCI-779 5 nM)?
**A.** 54.2%

**Q.** What about the inhibition at 0.01 µM ([1]; MCF7, read-out: Percent Inhibition, Table E, CCI-779 100 nM + CCI-779 10 nM) of the same molecule?
**A.** 52.9%

**Q.** And the inhibition at 0.05 µM ([1]; MCF7, read-out: Percent Inhibition, Table E, CCI-779 100 nM + CCI-779 50 nM)?
**A.** 51%
